Patent US10428083B2, “Heterocyclylmethyl-thienouracile as antagonists of the adenosine-A2B-receptor” (BAYER PHARMA AKTIENGESELLSCHAFT, priority 2015, dated 2019)
pIC50: −log10 of the molar value.

The compounds below were run against human adenosine A2b receptor (Homo sapiens (Human), UniProt P29275) (assay: Cellular in vitro reporter gene test for A2b receptor activity (CHO-K1, CRE-luciferase, NECA stimulation)). Conditions: recombinant CHO-K1 cell line, CRE-luciferase reporter, antagonism of EC50 concentration of NECA; in some cases means of several determinations, rounded to two significant figures; read-out: A2b receptor IC50.
Sequence of human adenosine A2b receptor (P29275 whole entry): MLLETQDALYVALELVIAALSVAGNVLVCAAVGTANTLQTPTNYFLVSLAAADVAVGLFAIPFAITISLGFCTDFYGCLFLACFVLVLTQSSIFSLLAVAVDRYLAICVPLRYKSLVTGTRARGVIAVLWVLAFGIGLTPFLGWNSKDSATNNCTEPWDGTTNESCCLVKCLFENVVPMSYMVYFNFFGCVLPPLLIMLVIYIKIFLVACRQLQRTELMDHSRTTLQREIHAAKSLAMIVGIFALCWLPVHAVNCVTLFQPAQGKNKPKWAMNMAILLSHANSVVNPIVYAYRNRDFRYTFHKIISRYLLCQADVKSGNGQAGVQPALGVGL
Assay type: cell-based
Method in brief: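 CHO-K1 cells with CRE-driven luciferase; antagonists co-incubated with NECA at its EC50, determined in a pre-experiment on each test day. Luciferase read by luminescence 3 h after NECA addition.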

| pIC50 | Structure (SMILES) |
| --- | --- |
| 7.55 | Cc1c(Cn2cc[nH]c2=O)sc2c1c(=O)n(CC(C)(C)C)c(=O)n2CC1CCCO1 (racemic) [Example 507, 3-(2,2-Dimethylpropyl)-5-methyl-6-[(2-oxo-2,3-dihydro-1H-imidazol-1-yl)methyl]-1-(tetrahydrofuran-2-ylmethyl)thieno[2,3-d]pyrimidine-2,4(1H,3H)-dione] |
| 7.52 | CCn1c(=O)c2c(C)c(Cn3[nH]ccc3=O)sc2n(CC2CCCO2)c1=O (single isomer, unassigned) [Example 130, 3-Ethyl-5-methyl-6-[(5-oxo-2,5-dihydro-1H-pyrazol-1-yl)methyl]-1-(tetrahydrofuran-2-ylmethyl)thieno[2,3-d]pyrimidine-2,4(1H,3H)-dione] |
| 6.74 | CCn1c(=O)c2c(C)c(Cn3[nH]ccc3=O)sc2n(CC2CCCO2)c1=O (single isomer, unassigned) [Example 131, 3-Ethyl-5-methyl-6-[(5-oxo-2,5-dihydro-1H-pyrazol-1-yl)methyl]-1-(tetrahydrofuran-2-ylmethyl)thieno[2,3-d]pyrimidine-2,4(1H,3H)-dione] |
| 7.34 | Cc1c(Cn2[nH]ccc2=O)sc2c1c(=O)n(C(C)C)c(=O)n2CC1CCCO1 (single isomer, unassigned) [Example 135, 3-Isopropyl-5-methyl-6-[(5-oxo-2,5-dihydro-1H-pyrazol-1-yl)methyl]-1-(tetrahydrofuran-2-ylmethyl)thieno[2,3-d]pyrimidine-2,4(1H,3H)-dione] |
| 6.44 | Cc1c(Cn2[nH]ccc2=O)sc2c1c(=O)n(C(C)C)c(=O)n2CC1CCCO1 (single isomer, unassigned) [Example 136, 3-Isopropyl-5-methyl-6-[(5-oxo-2,5-dihydro-1H-pyrazol-1-yl)methyl]-1-(tetrahydrofuran-2-ylmethyl)thieno[2,3-d]pyrimidine-2,4(1H,3H)-dione] |
| 8.55 | CCn1c(=O)c2c(C)c(CN3CCNC3=S)sc2n(CC2CCCO2)c1=O (single isomer, unassigned) [Example 139, 3-Ethyl-5-methyl-1-(tetrahydrofuran-2-ylmethyl)-6-[(2-thioxoimidazolidin-1-yl)methyl]thieno[2,3-d]pyrimidine-2,4(1H,3H)-dione] |
| 8.32 | CCn1c(=O)c2c(C)c(CN3CCNC3=S)sc2n(CC2CCCO2)c1=O (single isomer, unassigned) [Example 140, 3-Ethyl-5-methyl-1-(tetrahydrofuran-2-ylmethyl)-6-[(2-thioxoimidazolidin-1-yl)methyl]thieno[2,3-d]pyrimidine-2,4(1H,3H)-dione] |
| 6.70 | CCn1c(=O)c2c(C)c(CN3CCNC3=O)sc2n(CC2CCCCO2)c1=O (single isomer, unassigned) [Example 179, 3-Ethyl-5-methyl-6-[(2-oxoimidazolidin-1-yl)methyl]-1-(tetrahydro-2H-pyran-2-ylmethyl)thieno[2,3-d]pyrimidine-2,4(1H,3H)-dione] |
| 7.52 | CCn1c(=O)c2c(C)c(CN3CCNC3=O)sc2n(CC2CCCCO2)c1=O (single isomer, unassigned) [Example 180, 3-Ethyl-5-methyl-6-[(2-oxoimidazolidin-1-yl)methyl]-1-(tetrahydro-2H-pyran-2-ylmethyl)thieno[2,3-d]pyrimidine-2,4(1H,3H)-dione] |
| 8.20 | Cc1c(CN2CCNC2=O)sc2c1c(=O)n(C(C)C)c(=O)n2CC1CCCO1 (single isomer, unassigned) [Example 187, 3-Isopropyl-5-methyl-6-[(2-oxoimidazolidin-1-yl)methyl]-1-(tetrahydrofuran-2-ylmethyl)thieno[2,3-d]pyrimidine-2,4(1H,3H)-dione] |
| 7.40 | Cc1c(CN2CCNC2=O)sc2c1c(=O)n(C(C)C)c(=O)n2CC1CCCO1 (single isomer, unassigned) [Example 188, 3-Isopropyl-5-methyl-6-[(2-oxoimidazolidin-1-yl)methyl]-1-(tetrahydrofuran-2-ylmethyl)thieno[2,3-d]pyrimidine-2,4(1H,3H)-dione] |
| 7.39 | Cc1c(CN2CCNC2=O)sc2c1c(=O)n(CC(C)C)c(=O)n2CC1CCO1 (single isomer, unassigned) [Example 195, 3-Isobutyl-5-methyl-1-(oxetan-2-ylmethyl)-6-[(2-oxoimidazolidin-1-yl)methyl]thieno[2,3-d]pyrimidine-2,4(1H,3H)-dione] |
| 8.19 | Cc1c(CN2CCNC2=O)sc2c1c(=O)n(CC(C)C)c(=O)n2CC1CCO1 (single isomer, unassigned) [Example 196, 3-Isobutyl-5-methyl-1-(oxetan-2-ylmethyl)-6-[(2-oxoimidazolidin-1-yl)methyl]thieno[2,3-d]pyrimidine-2,4(1H,3H)-dione] |

Second part, the compound before the results:

| Structure (SMILES) | pIC50 |
| --- | --- |
| Cc1c(CN2CCNC(=O)C2=O)sc2c1c(=O)n(C(C)C(F)(F)F)c(=O)n2CCC(F)(F)F (racemic) [Example 490, 6-[(2,3-Dioxopiperazin-1-yl)methyl]-5-methyl-3-(1,1,1-trifluoropropan-2-yl)-1-(3,3,3-trifluoropropyl)thieno[2,3-d]pyrimidine-2,4(1H,3H)-dione] | 7.72 |
| COCCn1c(=O)n(C(C)C(F)(F)F)c(=O)c2c(C)c(CN3CCNC(=O)C3=O)sc21 (racemic) [Example 491, 6-[(2,3-Dioxopiperazin-1-yl)methyl]-1-(2-methoxyethyl)-5-methyl-3-(1,1,1-trifluoropropan-2-yl)thieno[2,3-d]pyrimidine-2,4(1H,3H)-dione] | 7.28 |
| COC(C)Cn1c(=O)c2c(C)c(CN3CCNC(=O)C3=O)sc2n(CCC(F)(F)F)c1=O (racemic) [Example 493, 6-[(2,3-Dioxopiperazin-1-yl)methyl]-3-(2-methoxypropyl)-5-methyl-1-(3,3,3-trifluoropropyl)thieno[2,3-d]pyrimidine-2,4(1H,3H)-dione] | 7.96 |
| CCn1c(=O)c2c(C)c(CN3CCNC3=NC(=O)OC)sc2n(CCOC)c1=O (single isomer, unassigned) [Example 118, Methyl [1-{[3-ethyl-1-(2-methoxyethyl)-5-methyl-2,4-dioxo-1,2,3,4-tetrahydrothieno[2,3-d]pyrimidin-6-yl]methyl}imidazolidin-2-ylidene]carbamate] | 8.51 |
| CCn1c(=O)c2c(C)c(CN3CCNC3=NC(=O)OC)sc2n(CCOC)c1=O (single isomer, unassigned) [Example 119, Methyl [1-{[3-ethyl-1-(2-methoxyethyl)-5-methyl-2,4-dioxo-1,2,3,4-tetrahydrothieno[2,3-d]pyrimidin-6-yl]methyl}imidazolidin-2-ylidene]carbamate] | 8.57 |
| CCn1c(=O)c2c(C)c(CN3CCNC3=S)sc2n(CC2CCCCO2)c1=O (single isomer, unassigned) [Example 141, 3-Ethyl-5-methyl-1-(tetrahydro-2H-pyran-2-ylmethyl)-6-[(2-thioxoimidazolidin-1-yl)methyl]thieno[2,3-d]pyrimidine-2,4(1H,3H)-dione] | 6.92 |
| CCn1c(=O)c2c(C)c(CN3CCNC3=S)sc2n(CC2CCCCO2)c1=O (single isomer, unassigned) [Example 142, 3-Ethyl-5-methyl-1-(tetrahydro-2H-pyran-2-ylmethyl)-6-[(2-thioxoimidazolidin-1-yl)methyl]thieno[2,3-d]pyrimidine-2,4(1H,3H)-dione] | 7.89 |
| Cc1c(CN2CCNC2=S)sc2c1c(=O)n(CC(C)C)c(=O)n2CC1CCO1 (single isomer, unassigned) [Example 147, 3-Isobutyl-5-methyl-1-(oxetan-2-ylmethyl)-6-[(2-thioxoimidazolidin-1-yl)methyl]thieno[2,3-d]pyrimidine-2,4(1H,3H)-dione] | 7.66 |
| Cc1c(CN2CCNC2=S)sc2c1c(=O)n(CC(C)C)c(=O)n2CC1CCO1 (single isomer, unassigned) [Example 148, 3-Isobutyl-5-methyl-1-(oxetan-2-ylmethyl)-6-[(2-thioxoimidazolidin-1-yl)methyl]thieno[2,3-d]pyrimidine-2,4(1H,3H)-dione] | 8.39 |
| Cc1c(CN2CCNC2=S)sc2c1c(=O)n(CC(F)(F)F)c(=O)n2CC1CCO1 (single isomer, unassigned) [Example 155, 5-Methyl-1-(oxetan-2-ylmethyl)-6-[(2-thioxoimidazolidin-1-yl)methyl]-3-(2,2,2-trifluoroethyl)thieno[2,3-d]pyrimidine-2,4(1H,3H)-dione] | 7.59 |
| Cc1c(CN2CCNC2=S)sc2c1c(=O)n(CC(F)(F)F)c(=O)n2CC1CCO1 (single isomer, unassigned) [Example 156, 5-Methyl-1-(oxetan-2-ylmethyl)-6-[(2-thioxoimidazolidin-1-yl)methyl]-3-(2,2,2-trifluoroethyl)thieno[2,3-d]pyrimidine-2,4(1H,3H)-dione] | 8.24 |
| Cc1c(CN2CCNC2=S)sc2c1c(=O)n(CC(F)F)c(=O)n2CC1CCCO1 (single isomer, unassigned) [Example 163, 3-(2,2-Difluoroethyl)-5-methyl-1-(tetrahydrofuran-2-ylmethyl)-6-[(2-thioxoimidazolidin-1-yl)methyl]thieno[2,3-d]pyrimidine-2,4(1H,3H)-dione] | 8.28 |
| Cc1c(CN2CCNC2=S)sc2c1c(=O)n(CC(F)F)c(=O)n2CC1CCCO1 (single isomer, unassigned) [Example 164, 3-(2,2-Difluoroethyl)-5-methyl-1-(tetrahydrofuran-2-ylmethyl)-6-[(2-thioxoimidazolidin-1-yl)methyl]thieno[2,3-d]pyrimidine-2,4(1H,3H)-dione] | 7.77 |
| Cc1c(CN2CCNC2=O)sc2c1c(=O)n(C(C)C)c(=O)n2CC1CCO1 (single isomer, unassigned) [Example 184, 3-Isopropyl-5-methyl-1-(oxetan-2-ylmethyl)-6-[(2-oxoimidazolidin-1-yl)methyl]thieno[2,3-d]pyrimidine-2,4(1H,3H)-dione] | 8.15 |
| Cc1c(CN2CCNC2=O)sc2c1c(=O)n(C(C)C)c(=O)n2CC1CCO1 (single isomer, unassigned) [Example 185, 3-Isopropyl-5-methyl-1-(oxetan-2-ylmethyl)-6-[(2-oxoimidazolidin-1-yl)methyl]thieno[2,3-d]pyrimidine-2,4(1H,3H)-dione] | 7.22 |
